pIC50: −log10 of the molar value.
Biological target: T1, c-Met (Homo sapiens, UniProt P08581)
Assay: c-Met inhibitory assay using AlphaScreen (Method A)
Format: biochemical
Parameters: purchased Carna bio Co., Ltd 08-051
Conditions: ATP 20 μM
Description: Inhibitory activity of compounds against c-Met kinase was determined through the following procedures. Method A) c-Met inhibitory assay using AlphaScreen™
Target sequence in this assay (P08581 956-1390 limits assumed): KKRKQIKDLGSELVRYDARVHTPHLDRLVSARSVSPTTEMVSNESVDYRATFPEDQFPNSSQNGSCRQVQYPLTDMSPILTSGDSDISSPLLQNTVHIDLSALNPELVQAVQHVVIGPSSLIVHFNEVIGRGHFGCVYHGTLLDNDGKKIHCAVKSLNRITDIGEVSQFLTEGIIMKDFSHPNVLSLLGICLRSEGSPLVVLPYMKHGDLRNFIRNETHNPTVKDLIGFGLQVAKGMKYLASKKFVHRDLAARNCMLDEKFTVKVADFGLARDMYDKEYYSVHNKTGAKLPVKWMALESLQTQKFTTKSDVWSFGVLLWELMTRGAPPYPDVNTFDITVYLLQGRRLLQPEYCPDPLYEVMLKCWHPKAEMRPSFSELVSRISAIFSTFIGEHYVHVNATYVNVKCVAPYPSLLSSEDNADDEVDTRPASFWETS
A biotinylated peptide including a phosphorylated site of Pyk2 (Tyr402), which is reported as a bio-substrate in Clin. Cancer Res. vol. […] The mixture was allowed to react at room temperature for 20 minutes. EDTA was added to the reaction mixture to a final concentration of 50 mM, to thereby terminate reaction. […] The reaction was done for one hour at room temperature. Thereafter, the fluorescence intensity from the reaction mixture was measured using a multi-label counter (EnVision™, Perkin Elmer).

Question: How did the pIC50 turn out when COc1cc2nccc(Oc3ccc(NC(=S)NC(=O)Cc4ccccc4)cc3F)c2cc1C(=O)NCC(O)c1nnn(C)n1 (stereo not drawn) [Example 30, 4-(2-Fluoro-4-(3-(2-phenylacetyl)thioureido)phenoxy)-N-(2-hydroxy-2-(2-methyl-2H-tetrazol-5-yl)ethyl)-7-methoxyquinoline-6-carboxamide] was run?
Answer: The pIC50 was 7.40.

Question: COCCNC(=O)c1cc2c(Oc3ccc(NC(=S)NC(=O)Cc4ccccc4)cc3F)ccnc2cc1OC [Example 7, 4-(2-Fluoro-4-(3-(2-phenylacetyl)thioureido)phenoxy)-7-methoxy-N-(methoxyethyl)quinoline-6-carboxamide] was tested. Which pIC50 did it give?
Answer: The pIC50 was 7.30.

Question: With COc1cc2nccc(Oc3ccc(NC(=S)NC(=O)Cc4ccccc4)cc3F)c2cc1C(=O)N1CCC(O)C1 (stereo not drawn) [Example 52, N-(3-Fluoro-4-(6-(3-hydroxypyrrolidine-1-carbonyl)-7-methoxyquinolin-4-yloxy)phenylcarbamothioyl)-2-phenylacetamide] as the compound, how does the pIC50 read?
Answer: The pIC50 was 6.85.

Question: How did the pIC50 turn out when COc1cc2nccc(Oc3ccc(NC(=S)NC(=O)Cc4ccccc4)cc3F)c2cc1C(=O)NCC(O)CO (stereo not drawn) [Example 3, N-(2,3-Dihydroxypropyl)-4-(2-fluoro-4-(3-(2-phenylacetyl)thioureido)phenoxy)-7-methoxyquinoline-6-carboxamide] was run?
Answer: The pIC50 was 7.21.

Question: COc1cc2nccc(Oc3ccc(NC(=S)NC(=O)Cc4ccccc4)cc3F)c2cc1C(=O)NCC1(O)CCCCC1 [Example 25, 4-(2-Fluoro-4-(3-(2-phenylacetyl)thioureido)phenoxy)-N-((1-hydroxycyclohexyl)methyl)-7-methoxyquinoline-6-carboxamide] was tested. Which pIC50 did it give?
Answer: The pIC50 was 7.14.

Question: How did the pIC50 turn out when COc1cc2nccc(Oc3ccc(NC(=S)NC(=O)Cc4ccccc4)cc3F)c2cc1C(=O)NCCCOC(C)C [Example 1, 4-(2-Fluoro-4-(3-(2-phenylacetyl)thioureido)phenoxy)-N-(3-isopropyloxypropyl)-7-methoxyquinoline-6-carboxamide] was run?
Answer: The pIC50 was 6.68.

Question: CCN(CC)CCNC(=O)c1cc2c(Oc3ccc(NC(=S)NC(=O)Cc4ccccc4)cc3F)ccnc2cc1OC [Example 8, N-(2-(Diethylamino)ethyl)-4-(2-fluoro-4-(3-(2-phenylacetyl)thioureido)phenoxy)-7-methoxyquinoline-6-carboxamide] was tested. Which pIC50 did it give?
Answer: The pIC50 was 6.97.

Question: How did the pIC50 turn out when COc1cc2nccc(Oc3ccc(NC(=S)NC(=O)Cc4ccccc4)cc3F)c2cc1C(=O)NC1CCCCNC1=O (stereo not drawn) [Example 16, 4-(2-Fluoro-4-(3-(2-phenylacetyl)thioureido)phenoxy)-7-methoxy-N-(2-oxoazepan-3-yl)quinoline-6-carboxamide] was run?
Answer: The pIC50 was 6.75.

Question: COc1cc2nccc(Oc3ccc(NC(=S)NC(=O)Cc4ccccc4)cc3F)c2cc1C(=O)NCc1cccnc1 [Example 4, 4-(2-Fluoro-4-(3-(2-phenylacetyl)thioureido)phenoxy)-7-methoxy-N-(pyridin-3-ylmethyl)quinoline-6-carboxamide] was tested. Which pIC50 did it give?
Answer: The pIC50 was 6.85.

Question: COc1cc2nccc(Oc3ccc(NC(=S)NC(=O)Cc4ccccc4)cc3F)c2cc1C(=O)N1CCC(N2CCCC2)CC1 [Example 51, N-(3-Fluoro-4-(7-methoxy-6-(4-(pyrrolidin-1-yl)piperidine-1-carbonyl)quinolin-4-yloxy)phenylcarbamothioyl)-2-phenylacetamide] was tested. Which pIC50 did it give?
Answer: Its pIC50 is 6.87.

Question: COc1cc2nccc(Oc3ccc(NC(=S)NC(=O)Cc4ccccc4)cc3F)c2cc1C(=O)NCCNC(C)=O [Example 11, N-(2-Acetamidoethyl)-4-(2-fluoro-4-(3-(2-phenylacetyl)thioureido)phenoxy)-7-methoxyquinoline-6-carboxamide] was tested. Which pIC50 did it give?
Answer: The pIC50 was 6.84.

Biological target: T1, c-Met
Assay: c-Met inhibitory assay using DeskTop Profiler (Method B)
Format: biochemical
Parameters: made in house
Conditions: ATP 43 μM
Description: Method B) c-Met Inhibitory Assay Using DeskTop Profiler
A dephosphorylation enzyme inhibitor cocktail (PhosSTOP, #4906837, product of Roche) and a protease inhibitor cocktail (Complete, Mini, EDTA-free, #1836170; product of Roche) were added to a reaction buffer (100 mM HEPES (pH: 7.5), 10 mM MgCl2, 0.003% Brij-35, 0.04% Tween, and 1 mM DTT). In the presence of the compound of the present invention, recombinant c-Met (purified product of Taiho Pharmaceutical Co., Ltd.), fluorescence-labeled c-Met substrate peptide (FL-Peptide 2, #760346, Caliper Life Sciences) (final concentration: 1.5 μM), and ATP (final concentration: 43 μM) were added thereto, and the mixture was allowed to react at 28° C. for 90 minutes. EDTA was added to the reaction mixture to a final concentration of 10 mM, to thereby terminate reaction. By use of DeskTop Profiler (#119900, Caliper Life Sciences), each fluorescence intensity of the substrate and that of the phosphorylated product was determined, whereby the amount of the formed phosphorylated product was determined. The compound concentration that realizes 50% inhibition of formation of phosphorylated product was defined as IC50 (μM), and the results are shown in the following Tables.
Target sequence in this assay (P08581 25-1390): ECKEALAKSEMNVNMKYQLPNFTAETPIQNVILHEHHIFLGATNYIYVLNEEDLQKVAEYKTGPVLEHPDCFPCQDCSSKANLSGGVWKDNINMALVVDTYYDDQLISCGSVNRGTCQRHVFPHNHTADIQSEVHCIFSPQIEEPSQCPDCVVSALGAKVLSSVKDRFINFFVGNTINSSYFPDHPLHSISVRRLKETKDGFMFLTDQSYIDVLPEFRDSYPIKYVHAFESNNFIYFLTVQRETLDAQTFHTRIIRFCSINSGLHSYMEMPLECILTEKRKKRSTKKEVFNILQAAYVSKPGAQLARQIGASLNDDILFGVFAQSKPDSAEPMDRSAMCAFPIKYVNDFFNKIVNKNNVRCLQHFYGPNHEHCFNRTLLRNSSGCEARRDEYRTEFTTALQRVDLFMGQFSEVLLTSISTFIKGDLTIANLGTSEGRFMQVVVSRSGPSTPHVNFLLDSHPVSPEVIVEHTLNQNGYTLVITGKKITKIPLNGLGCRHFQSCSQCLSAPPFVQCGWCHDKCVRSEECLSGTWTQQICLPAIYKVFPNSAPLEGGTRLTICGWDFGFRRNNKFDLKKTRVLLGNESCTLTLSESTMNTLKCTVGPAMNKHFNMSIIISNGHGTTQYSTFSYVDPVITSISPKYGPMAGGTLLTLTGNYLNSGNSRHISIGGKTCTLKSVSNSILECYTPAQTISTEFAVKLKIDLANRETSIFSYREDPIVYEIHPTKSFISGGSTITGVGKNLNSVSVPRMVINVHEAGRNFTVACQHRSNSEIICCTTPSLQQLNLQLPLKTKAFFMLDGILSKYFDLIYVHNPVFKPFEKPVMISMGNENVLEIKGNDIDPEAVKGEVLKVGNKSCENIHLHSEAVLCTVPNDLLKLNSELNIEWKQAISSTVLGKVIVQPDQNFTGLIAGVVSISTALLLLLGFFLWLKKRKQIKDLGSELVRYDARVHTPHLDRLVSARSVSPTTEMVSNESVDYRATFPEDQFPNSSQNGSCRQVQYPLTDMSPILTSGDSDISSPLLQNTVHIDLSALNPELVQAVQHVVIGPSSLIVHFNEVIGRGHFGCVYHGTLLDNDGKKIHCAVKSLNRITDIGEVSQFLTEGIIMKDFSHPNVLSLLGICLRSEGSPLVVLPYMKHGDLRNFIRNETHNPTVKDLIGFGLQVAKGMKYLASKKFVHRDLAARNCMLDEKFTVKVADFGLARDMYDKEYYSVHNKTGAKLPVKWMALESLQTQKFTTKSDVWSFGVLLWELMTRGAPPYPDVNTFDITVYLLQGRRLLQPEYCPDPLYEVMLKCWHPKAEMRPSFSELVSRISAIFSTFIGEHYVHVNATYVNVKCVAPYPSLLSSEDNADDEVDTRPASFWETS

Question: How did the pIC50 turn out when COc1cc2nccc(Oc3ccc(NC(=S)NC(=O)Cc4c(F)cccc4F)cc3F)c2cc1C(=O)NCCN1CCOCC1 [Example 44] was run?
Answer: The pIC50 was 7.00.

Question: CC[C@@H](CO)NC(=O)c1cc2c(Oc3ccc(NC(=S)NC(=O)Cc4ccccc4)cc3F)ccnc2cc1OC [Example 31, (S)-4-(2-Fluoro-4-(3-(2-phenylacetyl)thioureido)phenoxy)-N-(1-hydroxybutan-2-yl)-7-methoxyquinoline-6-carboxamide] was tested. Which pIC50 did it give?
Answer: Its pIC50 is 7.59.

Question: CCN(CC(C)(C)O)C(=O)CNC(=O)c1cc2c(Oc3ccc(NC(=S)NC(=O)Cc4ccccc4)cc3F)ccnc2cc1OC [Example 35, N-(2-(Ethyl(2-hydroxy-2-methylpropyl)amino)-2-oxoethyl)-4-(2-fluoro-4-(3-(2-phenylacetyl)thioureido)phenoxy)-7-methoxyquinoline-6-carboxamide] was tested. Which pIC50 did it give?
Answer: The pIC50 was 7.51.

Question: CNC(=O)c1cc2c(Oc3ccc(NC(=S)NC(=O)Cc4ccccc4)c(F)c3)ccnc2cc1OC [Example 49, 4-(3-Fluoro-4-(3-(2-phenylacetyl)thioureido)phenoxy)-7-methoxy-N-methylquinoline-6-carboxamide] was tested. Which pIC50 did it give?
Answer: The pIC50 was 7.21.

Question: How did the pIC50 turn out when CC[C@@H](CO)NC(=O)c1cc2c(Oc3ccc(NC(=S)NC(=O)Cc4cccc(F)c4)cc3F)ccnc2cc1OC [Example 41, (S)-4-(2-Fluoro-4-(3-(2-(3-fluorophenyl)acetyl)thioureido)phenoxy)-N-(1-hydroxybutan-2-yl)-7-methoxyquinoline-6-carboxamide] was run?
Answer: The pIC50 was 7.47.

Question: COc1cc2nccc(Oc3ccc(NC(=S)NC(=O)Cc4ccccc4)cc3F)c2cc1C(=O)N(C)C [Example 50, 4-(2-Fluoro-4-(3-(2-phenylacetyl)thioureido)phenoxy)-7-methoxy-N,N-dimethylquinoline-6-carboxamide] was tested. Which pIC50 did it give?
Answer: The pIC50 was 6.86.

Question: With CNC(=O)c1cc2c(Oc3ccc(NC(=S)NC(=O)Cc4cccc(OC)c4)cc3F)ccnc2cc1OC [Example 46, 4-(2-Fluoro-4-(3-(2-(3-methoxyphenyl)acetyl)thioureido)phenoxy)-7-methoxy-N-methylquinoline-6-carboxamide] as the compound, how does the pIC50 read?
Answer: The pIC50 was 7.07.

Question: How did the pIC50 turn out when COc1cc2nccc(Oc3ccc(NC(=S)NC(=O)Cc4ccccc4F)cc3F)c2cc1C(=O)NCC(C)(C)O [Example 39, 4-(2-Fluoro-4-(3-(2-(2-fluorophenyl)acetyl)thioureido)phenoxy)-N-(2-hydroxy-2-methylpropyl)-7-methoxyquinoline-6-carboxamide] was run?
Answer: Its pIC50 is 7.54.

Question: CC[C@@H](CO)NC(=O)c1cc2c(Oc3ccc(NC(=S)NC(=O)Cc4ccc(Cl)cc4)cc3F)ccnc2cc1OC [Example 43, (S)-4-(4-(3-(2-(4-Chlorophenyl)acetyl)thioureido)-2-fluorophenoxy)-N-(1-hydroxybutan-2-yl)-7-methoxyquinoline-6-carboxamide] was tested. Which pIC50 did it give?
Answer: Its pIC50 is 7.30.

Question: COc1cc2nccc(Oc3ccc(NC(=S)NC(=O)Cc4ccc(Cl)cc4)cc3F)c2cc1C(=O)NCC(C)(C)O [Example 42, 4-(4-(3-(2-(4-Chlorophenyl)acetyl)thioureido)-2-fluorophenoxy)-N-(2-hydroxy-2-methylpropyl)-7-methoxyquinoline-6-carboxamide] was tested. Which pIC50 did it give?
Answer: The pIC50 was 7.35.

Question: With COCCNC(=O)CNC(=O)c1cc2c(Oc3ccc(NC(=S)NC(=O)Cc4ccccc4)cc3F)ccnc2cc1OC [Example 33, 4-(2-Fluoro-4-(3-(2-phenylacetyl)thioureido)phenoxy)-7-methoxy-N-(2-(2-methoxyethylamino)-2-oxoethyl)quinoline-6-carboxamide] as the compound, how does the pIC50 read?
Answer: The pIC50 was 7.92.

Question: With COc1cc2nccc(Oc3ccc(NC(=S)NC(=O)Cc4c(F)cccc4F)cc3F)c2cc1C(=O)NCC(C)(C)O [Example 45] as the compound, how does the pIC50 read?
Answer: The pIC50 was 7.25.

Question: CC[C@@H](CO)NC(=O)c1cc2c(Oc3ccc(NC(=S)NC(=O)Cc4ccccc4F)cc3F)ccnc2cc1OC [Example 40, (S)-4-(2-Fluoro-4-(3-(2-(2-fluorophenyl)acetyl)thioureido)phenoxy)-N-(1-hydroxybutan-2-yl)-7-methoxyquinoline-6-carboxamide] was tested. Which pIC50 did it give?
Answer: Its pIC50 is 7.57.

Question: With CNC(=O)c1cc2c(Oc3ccc(NC(=S)NC(=O)Cc4ccccc4)cc3Cl)ccnc2cc1OC [Example 48, 4-(2-Chloro-4-(3-(2-phenylacetyl)thioureido)phenoxy)-7-methoxy-N-methylquinoline-6-carboxamide] as the compound, how does the pIC50 read?
Answer: Its pIC50 is 7.47.

Question: With CNC(=O)c1cc2c(Oc3ccc(NC(=S)NC(=O)Cc4ccc(C(F)(F)F)cc4)cc3F)ccnc2cc1OC [Example 47, 4-(2-Fluoro-4-(3-(2-(4-trifluoromethylphenyl)acetyl)thioureido)phenoxy)-7-methoxy-N-methylquinoline-6-carboxamide] as the compound, how does the pIC50 read?
Answer: The pIC50 was 6.69.

Question: How did the pIC50 turn out when COc1cc2nccc(Oc3ccc(NC(=S)NC(=O)Cc4ccccc4)cc3F)c2cc1C(=O)NCCC(=O)N(C)C [Example 36, N-(3-(Dimethylamino)-3-oxopropyl)-4-(2-fluoro-4-(3-(2-phenylacetyl)thioureido)phenoxy)-7-methoxyquinoline-6-carboxamide] was run?
Answer: The pIC50 was 7.28.

— patent US8304427B2, “Acylthiourea compound or salt thereof, and use thereof” (Taiho Pharmaceutical Co., Ltd., priority 2008, dated 2012)
